# Target: hERG potassium channel (Homo sapiens, UniProt Q12809)
# Experiment: hERG channel inhibition test
# Type: cell-based
# Chain of hERG potassium channel (Q12809 whole entry): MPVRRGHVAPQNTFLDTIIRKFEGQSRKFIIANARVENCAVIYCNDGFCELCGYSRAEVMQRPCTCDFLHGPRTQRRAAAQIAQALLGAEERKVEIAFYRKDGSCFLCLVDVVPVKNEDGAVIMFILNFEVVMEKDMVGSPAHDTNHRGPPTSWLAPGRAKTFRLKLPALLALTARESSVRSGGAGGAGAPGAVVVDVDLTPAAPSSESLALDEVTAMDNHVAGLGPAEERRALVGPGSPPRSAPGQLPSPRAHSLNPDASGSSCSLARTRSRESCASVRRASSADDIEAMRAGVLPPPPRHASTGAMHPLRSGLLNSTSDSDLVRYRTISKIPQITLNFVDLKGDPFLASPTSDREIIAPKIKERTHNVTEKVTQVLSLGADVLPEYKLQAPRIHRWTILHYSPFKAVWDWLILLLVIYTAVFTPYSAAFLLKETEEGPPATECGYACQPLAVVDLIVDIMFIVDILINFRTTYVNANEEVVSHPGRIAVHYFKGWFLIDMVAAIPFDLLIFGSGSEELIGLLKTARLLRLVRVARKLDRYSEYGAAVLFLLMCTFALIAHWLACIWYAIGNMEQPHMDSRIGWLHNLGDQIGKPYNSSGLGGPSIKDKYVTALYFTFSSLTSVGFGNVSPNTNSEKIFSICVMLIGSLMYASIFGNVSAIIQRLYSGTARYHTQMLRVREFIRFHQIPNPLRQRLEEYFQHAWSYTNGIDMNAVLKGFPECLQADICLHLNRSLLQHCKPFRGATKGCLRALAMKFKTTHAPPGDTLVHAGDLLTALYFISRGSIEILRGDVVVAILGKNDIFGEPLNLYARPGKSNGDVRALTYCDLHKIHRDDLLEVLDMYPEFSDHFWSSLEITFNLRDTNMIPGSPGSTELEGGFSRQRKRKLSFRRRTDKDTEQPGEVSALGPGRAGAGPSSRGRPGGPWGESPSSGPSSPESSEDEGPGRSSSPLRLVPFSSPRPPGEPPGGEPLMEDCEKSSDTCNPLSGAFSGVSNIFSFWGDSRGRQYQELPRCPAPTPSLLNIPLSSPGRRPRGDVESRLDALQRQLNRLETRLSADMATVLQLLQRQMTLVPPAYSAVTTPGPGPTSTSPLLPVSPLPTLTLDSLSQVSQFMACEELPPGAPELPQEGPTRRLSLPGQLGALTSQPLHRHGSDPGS
compound,measurement,value
"CC(C)[C@H]1OC(=O)[C@H](Cc2ccccc2)N(C)C(=O)[C@@H](C(C)C)OC(=O)[C@H](Cc2ccccc2)N(C)C(=O)[C@@H](C(C)C)OC(=O)[C@H](Cc2ccccc2)N(C)C1=O [BEA, beauvericin]",IC50,~2550 nM
